“And” between values parts separate entries of the source, which are not always exact repeats. Identical values can stand only once. The source made the active and inactive calls.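 The calls were made as follows: active = compounds giving half or more protection of infected cells from virus-caused growth loss, again on retest; inactive = the rest.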

This assay concerns CEM cells HIV-1 protection, formazan growth assay. Nature of the assay: NCI AIDS Antiviral Assay. As to conditions: for IC50: measured here: growth of uninfected CEM cells. The method in brief:
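Screen of anti-HIV-1 activity in human CEM cells using a formazan-based growth measurement at five drug concentrations. Hits with 50% or greater protection were repeated, and confirmation required reproducible complete protection.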

One may read the EC50 as the concentration needed to bring the measured effect to its halfway point. What is called IC50 is the midpoint of a concentration-inhibition curve. A lower IC50 goes with greater potency. Consider `COc1ccc(-c2c(C#N)c(S)n(C3OC(COC(C)=O)C(OC(C)=O)C(OC(C)=O)C3OC(C)=O)c(=O)c2C#N)cc1` (configuration not stated), for which the EC50 is more than 200 µM and the IC50 is more than 200 µM.
Turning to `COc1cc(C2c3cc4c(cc3OC(NCCO)C2C)OCO4)cc(OC)c1OC` (configuration not stated), the EC50 is more than 20 µM and the IC50 was 0.24 µM.
Turning to `CCOC(=O)C(CCCCS(=O)(=O)O)C(=O)OCC`, the EC50 is more than 200 µM and the IC50 was more than 200 µM.
Take `CCc1c(Cc2ccccc2)n(COCCCO[Si](C)(C)C(C)(C)C)c(=O)[nH]c1=O`: the EC50 is more than 200 µM and the IC50 was 10 µM.
For `COc1ccc(C(c2cc(OC)c(OC)c(OC)c2)N2C(=O)CCC2C(=O)O)cc1` (configuration not stated), in that order: more than 200 µM and 33.1 µM.
In the case of `O=C1c2ccccc2C(C2c3ccccc3C(=O)c3ccccc32)c2ccccc21`, the result was inactive.
For `O=C(O)CCSCc1cc(C(=O)Nc2ccc(/C=C/c3ccc(NC(=O)c4cc(CSCCC(=O)O)c5ccccc5c4O)cc3S(=O)(=O)O)c(S(=O)(=O)O)c2)c(O)c2ccccc12`, the EC50 was 83.2 µM and the IC50 came out at 162 µM.
With `N=C(N)c1csc([C@@H]2O[C@H](CO)[C@@H](O)[C@H]2O)n1`, the result was inactive.
With `CC1=Nc2c(C#N)ncn2N=C(C)C1`, the EC50 is more than 200 µM and the half-inhibitory concentration (IC50) is more than 200 µM.
In the case of `Cc1cc[c]([Sb](=[O])([OH])[c]2ccc(C)cc2)cc1`, the EC50 was more than 5.01 µM and the half-inhibitory concentration (IC50) was 0.851 µM.
With `CC1=N/C(=C\c2ccc(N(C)C)cc2)C(=O)O1`, the EC50 was more than 81.3 µM and the IC50 is more than 81.3 µM.
Consider `CSC(=S)N/N=C/c1nccc2ccccc12`, for which the result was inactive.
For `O=C(O)CC[P+](c1ccccc1)(c1ccccc1)c1ccccc1`, the EC50 was more than 200 µM; the half-inhibitory concentration (IC50) was 21.9 µM and > 200 µM.
On to `OC1CCCCCCCCCCC1SCCCCl` (configuration not stated), for which the EC50 is more than 200 µM and the concentration for half-maximal inhibition (IC50) was more than 200 µM.
As to `c1ccc2c(c1)nn1c3ccc4nonc4c3[n-][n+]21`, the result was inactive.
As to `CCOC(=O)Cc1csc(N=Nc2c(O)[nH]c3ccccc23)n1`, the EC50 was more than 200 µM and the half-maximal inhibitory concentration (IC50) came to 110 µM.
In the same order, the values of `Nc1ccc(N)c(N2C(=O)c3ccccc3C2=O)c1` are more than 200 µM and more than 200 µM.
For `CC1(C)OC2OC(COC(=O)c3ccccc3)C(=O)C2O1` (configuration not stated), in that order: more than 200 µM and 13.8 µM.
For `C=C1CC(Cn2cc(Br)c(=O)[nH]c2=O)(c2ccc(Br)cc2)OC1=O` (configuration not stated), in that order: more than 20 µM and 0.759 µM.
For `Cn1c(NC(=O)C(=O)NC23CC4CC(CC(C4)C2)C3)nc2ccccc21`, the outcome was inactive.
For `Cc1ccc2nc(-c3ccc4nc(-c5ccc(N=Nc6ccc(-c7nc8ccc(-c9nc%10ccc(C)c(S(=O)(=O)O)c%10s9)cc8s7)cc6)cc5)sc4c3)sc2c1S(=O)(=O)O`, the half-maximal effective concentration (EC50) is 19.5 µM and the IC50 is more than 200 µM.
In the same order, the values of `CCCCCCC1OC(C(=O)OCCCC)C(C(=O)OCCCC)O1` (configuration not stated) are more than 200 µM and more than 200 µM.
For `O=c1c(/C=N/OCCCCO/N=C/c2cc3c(cc2[N+](=O)[O-])OCO3)coc2c(Cl)cc(Cl)cc12`, in that order: more than 200 µM and 75.9 µM.
In the same order, the values of `NC(=O)CNC(=O)c1ccccc1SC(=O)CC[n+]1ccccc1` are more than 200 µM and 102 µM.
With `Nc1ncnc2c1ncn2C1SC(CO)C(O)C1O` (configuration not stated), the EC50 was 45.7 µM and the concentration for half-maximal inhibition (IC50) turned out to be 148 µM.
In the same order, the values of `COc1ccc(C(=O)C(C(=O)CCC(=O)Nc2cccc(C(F)(F)F)c2)c2ccccc2)cc1` (configuration not stated) are more than 11.2 µM and more than 11.2 µM.
In the same order, the values of `Cn1c(=O)c2[nH]c(N/N=N/c3nncs3)nc2n(C)c1=O` are more than 200 µM and more than 200 µM.
As to `c1ccc2c(c1)nc1nc3c(cn12)CCCC3`, the EC50 is more than 151 µM and the IC50 is more than 151 µM.
On to `S=C1OC2C3C4CC5C3C(O1)C1C5C4C21` (configuration not stated), for which the result was inactive.

These data come from PubChem BioAssay AID179 (DTP/NCI, 2004).
